Series [1] deals with pStat5 and Hes1 in DN3a cells. In words: pStat5 and Hes1 in DN3a cells from treated Lmo2^Tg mice (flow cytometry). The format is in vivo, mouse. The procedure:
The synthesis of Dynole 34-2 and Dyngo 4a compounds was performed as previously described[32],[33] and was kindly provided by A. McCluskey. For in vitro assays, the specific Dynamin inhibitors Dynole 34-2, Dyngo 4a and Dynasore (#S8047, Selleckchem, Sapphire Bioscience Pty Ltd, Redfern NSW, Australia) were made as stock solutions in 100% dimethyl sulfoxide (DMSO), which were stored frozen. These compounds were diluted in 50% v/v DMSO/20 mM Tris-HCl pH 7.4 immediately prior to use. For in vivo administration, Dynole 34-2 was resuspended in pre-warmed HRC#5 (Pharmatek, San Diego CA, USA) 1 : 9 phosphate-buffered saline (PBS) 1× pH 7.4 at 37 °C, and sonicated 10 times for 30 s using a Bioruptor Plus (Biogenode) immediately prior to injection at 30 mg/kg, twice daily.
Phosphoflow analysis was performed as previously described. Briefly, 2 × 10^6 cells stained for surface markers were subsequently resuspended into PBS 1× + 4% v/v paraformaldehyde and incubated for 10 min at 4 °C for fixation. Fixed cells were washed twice using PBS 1×, then resuspended in pre-chilled at −20 °C Perm Buffer III (BD Pharmingen) and incubated 30 min at 4 °C for permeabilization. Cells were washed twice using PBS 1× and incubated overnight at 4 °C in PBS 1× + 2% v/v fetal calf serum (FCS) with Cell Signalling purified antibodies (Genesearch Pty Ltd, Arundel QLD, Australia) against pSTAT5 (Tyr694; #9359), phospho-p38 MAPK (Thr180/Tyr182; #4511), phospho-p44/42 (Erk1/2; #9102), phospho-S6 (Ser235/236; #4856) and phospho-Akt (Ser473; #9271) or isotype control. For intracellular HES1 detection, cells stained for surface markers were subsequently fixed and permeabilized using the BD Cytofix/Cytoperm^TM Kit and incubated overnight at 4 °C in PBS 1× + 2% v/v FCS with a purified antibody against HES1 (D6PU; #11988, Cell Signalling) or isotype control. After staining with primary antibodies for phosphoflow or intracellular detection, cells were incubated in permeabilization buffer with donkey Alexa Fluor 488-conjugated anti-rabbit secondary antibody (A-21206, lot #1910751, Molecular Probes, Invitrogen) or goat Alexa Fluor 546-conjugated anti-rabbit secondary antibody (A-11035, lot #1904467, Molecular Probes, Invitrogen) for 1 h on ice, and washed twice in PBS 1×. Fluorescence-activated cell sorting (FACS) analysis was performed using LSRII and LSR Fortessa cytometers, following the gating strategies described in Supplementary Fig. 11. Cell sorting was performed with a FACSAria or BD Influx.
In general terms: A flow cytometer gives signals particle by particle.

The next series deals with GFP^hi DN3a thymocytes. In words: Cell cycle-restricted GFP^hi DN3a thymocytes in treated H2B-GFP;Lmo2^Tg mice. It counts as in vivo, mouse.
For the next series, the system named is hematopoietic stem cells. The series is described as follows: Competitive transplant with bone marrow cells from treated WT mice (HSC activity). It counts as in vivo. The procedure:
induction-like therapy (VXL) or combination therapy was administered. Mean ± SEM, 2-way ANOVA […]
murine B (CD19+ B220+), T (CD3+) and Myeloid (Gr-1 + CD11b+ granulocytes and monocytes) cells (c ), as well as Lineage-negative Kit-positive (Lin -Kit+, LK) progenitors, different populations of multipotent progenitors (MPP) and hematopoietic stem cells (HSC; d) from the bone marrow of WT […]
administered. Vehicle was used as control. e, Experimental schematic of competitive transplant […]
harvested from isogenic Cd45.1+ mice. These cells were injected into lethally -irradiated recipients, and lineage reconstitution was monitored every 4 weeks, until 20 weeks post-transplantation when BM was harvested for analysis. f, Percent of donor -derived (Cd45.2 +) cells among all peripheral blood cells at 4, 8, 12, 16 and 20 weeks post- transplant. g-h , Absolute numbers of donor-derived (Cd45.2+) lineage-committed (B, and Myeloid) cells ( g), as well as LK, MPP populations and HSCs (h ) harvested from the BM of recipients at 20 weeks post- transplant. Mean ± SEM, 2-way ANOV A with Tukey’s correction test; *P<0.05, *** P<0.001 compared to vehicle; #P<0.05, ##P<0.01, ###P<0.001 compared to VXL. ns = not statistically significant.

Series [2] relates to IL-3R, GM-CSFR and c-Kit endocytosis in Ba/F3-SGM3R cells. In words: Surface expression of IL-3R, GM-CSFR and KIT in Ba/F3-SGM3R cells. It counts as cell-based, murine. The settings on record: result in words. From the text: The coding sequence of murine Csf2ra (gm-csfr) and c-Kit was amplified by PCR from cDNA of bone marrow mononuclear cells of a healthy WT donor using primers mGmcsfr-FL-F and mGmcsfr-FL-R, and mKit-FL-F and mKit-FL-R, respectively (Table 3). The PCR product was cloned into the XhoI and EcoRI sites of pMIG-R1, which was kindly given by Pear et al.[82],[83]. Ba/F3 cells were infected with pMIG-R1/Gmcsfr retroviral supernatants produced in 293T cells, transduced cells were sorted with a BD Influx (BD Australia) and selected by culture in medium supplemented with 25 ng/mL rmGm-csf (#305-03, Pepro Tech, Rocky Hill NJ, USA) for 7 days. Finally, Ba/F3 cells stably expressing Gm-csfr were infected with pMIG-R1/Kit retroviral supernatants produced in 293T cells to generate Ba/F3-SMG3R cells, which were sorted with a BD Influx and maintained in medium supplemented with 5 ng/mL rmIL-3 (#213-13, Pepro Tech, Rocky Hill NJ, USA).
Mean fluorescence intensity (MFI) ± SD of n=3 biological replicates are shown (*P<0.05, ** P<0.01, ***P<0.001 compared to vehicle) . Basal levels of pStat5 and pErk were measured in unstimulated BaF3-SGM3 R cells (white bar). c, Correlative studies between the relative levels of pStat5 (left) or pErk (right) and the relative survival of BaF3-SGM3R cells treated Dynole 34-2 . […]
in BaF3-SGM3R cells treated with Dynole 34-2 . […] Baseline measured in unstimulated BaF3-SGM3 R cells

Values joined by “and” are separate entries in the source; they are usually repeats but may differ in a detail not shown here. Identical values can stand only once.

The record followed here is article PMC7719179, “Small molecule inhibition of Dynamin-dependent endocytosis targets multiple niche signals and impairs leukemia stem cells” (Nature Communications, 2020).

With `CCCCCCCCNC(=O)C(C#N)=Cc1cn(CCCN(C)C)c2ccccc12` [Dynole 34-2, 2-Cyano-N-octyl-3-(1-(3-dimethylaminopropyl)-1H-indol-3-yl)-acrylamide], the “Hes1 (MFI)” value in series [1] (DN3a cells from treated Lmo2^Tg mice) was 22166 MFI and 17427 MFI and 19107 MFI and 15447 MFI; in series [1] (GFPhi DN3a cells), 2603 MFI and 2496 MFI and 2588 MFI and 2307 MFI and 2171 MFI; in series [1] (GFPlo DN3a cells) it was 2885 MFI and 2559 MFI and 2562 MFI and 2408 MFI and 2317 MFI. The “pStat5 (MFI)” value in series [1] (GFPhi DN3a cells) was 1253 MFI and 1075 MFI and 1590 MFI and 1503 MFI and 1019 MFI; in series [1] (GFPlo DN3a cells), 1761 MFI and 1433 MFI and 1767 MFI and 1648 MFI and 1460 MFI. The “proportion of GFP^hi cells in DN3a thymocytes” value with GFP^hi DN3a thymocytes (H2B-GFP;Lmo2^Tg mice, result in words) is “did not affect”. In addition, the “% GFPhi cells in DN3a population” value in the series with GFP^hi DN3a thymocytes (mouse, in vivo) is 1.5% and 3.3% and 0.2% and 1.3%. Further, the “repopulation activity and leukemogenicity of GFP^hi DN3a thymocytes” value with GFP^hi DN3a thymocytes (result in words) is on record as “significantly impaired”. Besides, the “Absolute numbers of Cd45.2+ cells in the bone marrow: B cells” value in the series with hematopoietic stem cells (Supplementary Figure 5g-h) is 3150000 and 4270000 and 3310000 and 4360000. Moreover, the “Absolute numbers of Cd45.2+ cells in the bone marrow: LK” value with hematopoietic stem cells (Supplementary Figure 5g-h) is 231000 and 185000 and 205000 and 163000 and 160000. In addition, in the series with hematopoietic stem cells (Supplementary Figure 5g-h), the “Absolute numbers of Cd45.2+ cells in the bone marrow: Myeloid cells” value is 955000 and 1600000 and 1200000 and 1410000 and 1720000. Also, in the series with hematopoietic stem cells (Supplementary Figure 5g-h), the “Absolute numbers of Cd45.2+ cells in the bone marrow: T cells” value is 471000 and 332000 and 364000 and 374000 and 460000. The “effect on HSC fitness and differentiation potential” value in the series with hematopoietic stem cells (competitive transplant of bone marrow from treated mice, result in words) was “no detrimental effect on HSC fitness and differentiation potential”. Also, the “Proportion of CD45.2+ (%) in peripheral blood” value in the series on hematopoietic stem cells (week 4) was 40.53% and 37.56% and 37.9% and 34.3% and 35.3%; in the series with hematopoietic stem cells (week 8), 36.97% and 46.65% and 45.78% and 44.9% and 43.63%; in the series with hematopoietic stem cells (week 12) it was 46.54% and 48.81% and 42.82% and 42.23% and 46.32%; in the series with hematopoietic stem cells (week 16), 42.09% and 57% and 54.04% and 43.93% and 53.26%; in the series with hematopoietic stem cells (week 20), 50.7% and 47.2% and 59.8% and 59.3% and 53.24%. Moreover, the “endocytosis of c-Kit, GM-CSFR and IL-3R” value in series [2] is “impaired endocytosis”.
